Measured values: the supplement of paper PMC11451515

Tested on: NOMO1
Test: cell viability relative to DMSO control; higher = less cytotoxic
Conditions: 48 h
Summary of the method: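 In 1536-well plates, 5 μl of leukemia cells were seeded per well: 500 cells/well for NOMO1 or SEM and 1000 cells/well for P12-Ichikawa. Each line had first been adapted for at least four passages in each medium. Library compounds in DMSO were pin-dosed at 11 threefold concentrations between 47 μM and 0.79 nM, and CellTiter-Glo One luminescence was read after 48 h at 37°C. Viability is a per-plate percentage relative to DMSO wells, with cell-free wells as background.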

[1] = HPLM + 10% dialyzed FBS, 0.000781 µM
[2] = HPLM + 10% dialyzed FBS, 0.00234 µM
[3] = HPLM + 10% dialyzed FBS, 0.00702 µM
[4] = HPLM + 10% dialyzed FBS, 0.0211 µM
[5] = HPLM + 10% dialyzed FBS, 0.0632 µM
[6] = HPLM + 10% dialyzed FBS, 0.19 µM
[7] = HPLM + 10% dialyzed FBS, 0.569 µM
[8] = HPLM + 10% dialyzed FBS, 1.71 µM
[9] = HPLM + 10% dialyzed FBS, 5.12 µM
[10] = HPLM + 10% dialyzed FBS, 15.4 µM
[11] = HPLM + 10% dialyzed FBS, 46.1 µM
[12] = RPMI 5 mM glucose + 10% FBS, 0.000781 µM
[13] = RPMI 5 mM glucose + 10% FBS, 0.00234 µM
[14] = RPMI 5 mM glucose + 10% FBS, 0.00702 µM
[15] = RPMI 5 mM glucose + 10% FBS, 0.0211 µM
[16] = RPMI 5 mM glucose + 10% FBS, 0.0632 µM
[17] = RPMI 5 mM glucose + 10% FBS, 0.19 µM
[18] = RPMI 5 mM glucose + 10% FBS, 0.569 µM
[19] = RPMI 5 mM glucose + 10% FBS, 1.71 µM
[20] = RPMI 5 mM glucose + 10% FBS, 5.12 µM
[21] = RPMI 5 mM glucose + 10% FBS, 15.4 µM
[22] = RPMI 5 mM glucose + 10% FBS, 46.1 µM
[23] = RPMI 5 mM glucose + 10% dialyzed FBS, 0.000781 µM
[24] = RPMI 5 mM glucose + 10% dialyzed FBS, 0.00234 µM
[25] = RPMI 5 mM glucose + 10% dialyzed FBS, 0.00702 µM
[26] = RPMI 5 mM glucose + 10% dialyzed FBS, 0.0211 µM
[27] = RPMI 5 mM glucose + 10% dialyzed FBS, 0.0632 µM
[28] = RPMI 5 mM glucose + 10% dialyzed FBS, 0.19 µM
[29] = RPMI 5 mM glucose + 10% dialyzed FBS, 0.569 µM
[30] = RPMI 5 mM glucose + 10% dialyzed FBS, 1.71 µM
[31] = RPMI 5 mM glucose + 10% dialyzed FBS, 5.12 µM
[32] = RPMI 5 mM glucose + 10% dialyzed FBS, 15.4 µM
[33] = RPMI 5 mM glucose + 10% dialyzed FBS, 46.1 µM

| SMILES | cell viability [1] [%] | cell viability [2] [%] | cell viability [3] [%] | cell viability [4] [%] | cell viability [5] [%] | cell viability [6] [%] | cell viability [7] [%] | cell viability [8] [%] | cell viability [9] [%] | cell viability [10] [%] | cell viability [11] [%] | cell viability [12] [%] | cell viability [13] [%] | cell viability [14] [%] | cell viability [15] [%] | cell viability [16] [%] | cell viability [17] [%] | cell viability [18] [%] | cell viability [19] [%] | cell viability [20] [%] | cell viability [21] [%] | cell viability [22] [%] | cell viability [23] [%] | cell viability [24] [%] | cell viability [25] [%] | cell viability [26] [%] | cell viability [27] [%] | cell viability [28] [%] | cell viability [29] [%] | cell viability [30] [%] | cell viability [31] [%] | cell viability [32] [%] | cell viability [33] [%] |
| --- | --- | --- | --- | --- | --- | --- | --- | --- | --- | --- | --- | --- | --- | --- | --- | --- | --- | --- | --- | --- | --- | --- | --- | --- | --- | --- | --- | --- | --- | --- | --- | --- | --- |
| OC[C@H]1OC(OC2=CC3=C(C(=C2)O)C(=O)\C(=C/O3)C4=CC=C(O)C=C4)[C@H](O)[C@@H](O)[C@@H]1O (stereo partly drawn) | 94 | 86.6 | 79.6 | 92.8 | 89.9 | 89.2 | 72 | 61.9 | 88.9 | 72 | 74.2 | 78.9 | 92.5 | 85.9 | 77.8 | 92 | 90.7 | 87.9 | 84.7 | 84.1 | 86.3 | 72 | 88.5 | 73.9 | 78.6 | 78.5 | 80.8 | 73.4 | 80.4 | 82.8 | 76.7 | 77.8 | 66.7 |
| CC(C)n1cnc2c(NCCc3ccc(O)cc3)nc(-c3csc4ccccc34)nc21 | 108 | 98 | 124 | 99.4 | 121 | 116 | 144 | 139 | 51.1 | 33.8 | 13.4 | 115 | 114 | 104 | 113 | 127 | 114 | 119 | 113 | 119 | 57.1 | 24.9 | 114 | 116 | 115 | 121 | 124 | 116 | 125 | 140 | 130 | 57.1 | 29.1 |
| CO[C@@H]1[C@@H](O)[C@H](O)[C@@H](n2c3c(Cl)cccc3c3c4c(c5c6cccc(Cl)c6[nH]c5c32)C(=O)NC4=O)O[C@H]1CO | 103 | 116 | 106 | 103 | 105 | 107 | 89.6 | 21.6 | 30.5 | 25.7 | 18.3 | 93.3 | 91.3 | 106 | 105 | 86.7 | 86.4 | 91.7 | 16.7 | 20.3 | 19.3 | 16.4 | 84.7 | 103 | 89.9 | 98.5 | 90.8 | 99.9 | 87.2 | 20.7 | 21.3 | 22.6 | 19.7 |
| O=[S+]([O-])(NCCNC/C=C/c1ccc(Br)cc1)c1cccc2cnccc12 | 110 | 114 | 109 | 81.5 | 101 | 105 | 104 | 97.5 | 95.4 | 79.3 | 69.5 | 98.4 | 88.6 | 92.8 | 105 | 91.3 | 97.6 | 96.1 | 98.8 | 84 | 87.5 | 85.6 | 103 | 100 | 90.7 | 78.4 | 97.6 | 89.9 | 89.1 | 85.3 | 89.7 | 74.3 | 81.7 |
| CN(C)CCc1c[nH]c2ccc(C[S+](=O)([O-])N3CCCC3)cc12 | 95.2 | 118 | 104 | 109 | 118 | 113 | 102 | 125 | 107 | 96.2 | 60.2 | 96.7 | 107 | 97.1 | 104 | 123 | 97.1 | 99.3 | 98.5 | 96.4 | 97.6 | 72.2 | 99.5 | 95.8 | 113 | 103 | 106 | 109 | 115 | 102 | 106 | 92 | 58.8 |
| N#Cc1ccc(NC(=O)Nc2ccccc2Br)c2nn[nH]c12 |  |  |  |  |  |  |  |  |  |  |  | 101 | 122 | 102 | 107 | 117 | 119 | 122 | 114 | 107 | 120 | 119 | 94.1 | 106 | 106 | 105 | 101 | 113 | 123 | 109 | 105 | 101 | 115 |
| CC(C)(C)C1=CC(=C(NC(=O)C/2=C/NC3=C(C=CC=C3)C2=O)C=C1O)C(C)(C)C |  |  |  |  |  |  |  |  |  |  |  | 120 | 108 | 118 | 128 | 136 | 124 | 121 | 116 | 114 | 111 | 103 |  |  |  |  |  |  |  |  |  |  |  |
